Counter-ions that a name gives are not always drawn.
Experiments:
Bcl-2 protein = Bcl-2 protein (histag-Bcl-2, UniProtKB P10415) (Homo sapiens (Human), UniProt P10415); assay: Inhibition of Bcl-2 by the fluorescence polarisation technique; format: binding; conditions: fluorescence polarisation test; incubation for 2 hours; read-out: IC50 (nM) Bcl-2 FP
Excerpt: For partial inhibitors, the percentage fluorescence polarisation inhibition for a given concentration of the test compound is indicated.

[1] = test system: RS4; 11 leukaemia cell line; assay: In vitro cytotoxicity, Microculture Tetrazolium Assay (MTT); format: cell-based; conditions: Homo sapiens, 11 cells exposed for 48 hours
Description: The cytotoxicity studies were carried out on the RS4; 11 leukaemia cell line and on H146 small Cell Lung Carcinoma cell line. The cells are distributed onto microplates and exposed to the test compounds for 48 hours. The cell viability is then quantified by a colorimetric assay, the Microculture Tetrazolium Assay (Cancer Res., 1987, 47, 939-942).

Chain of Bcl-2 protein (P10415 whole entry): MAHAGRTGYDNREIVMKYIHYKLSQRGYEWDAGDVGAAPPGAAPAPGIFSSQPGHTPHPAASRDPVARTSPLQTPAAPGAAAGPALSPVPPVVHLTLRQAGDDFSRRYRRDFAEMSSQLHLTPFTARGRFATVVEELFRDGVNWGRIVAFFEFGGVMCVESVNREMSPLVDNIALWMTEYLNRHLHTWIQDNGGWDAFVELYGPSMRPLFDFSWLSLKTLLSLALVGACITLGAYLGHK

Structure (SMILES)	IC50 (Bcl-2 protein) [nM]	IC50 [1] [nM]
CN(C(=O)c1cc(-c2cc3c(cc2C(=O)N2Cc4ccccc4C[C@H]2CN2CCOCC2)CN(C(=O)Oc2ccc(F)cc2)CC3)n2c1CCCC2)c1ccc(O)cc1 [Example 120, 4-Fluorophenyl 6-{1-[(4-hydroxyphenyl)(methyl)carbamoyl]-5,6,7,8-tetrahydroindolizin-3-yl}-7-[(3S)-3-(morpholin-4-ylmethyl)-1,2,3,4-tetrahydroisoquinoline-2-carbonyl]-1,2,3,4-tetrahydroisoquinoline-2-carboxylate]	2.5	8.2
COc1ccc(OC(=O)N2CCc3cc(-c4cc(C(=O)N(C)c5ccc(O)cc5)c5n4CCCC5)c(C(=O)N4Cc5ccccc5C[C@H]4CN4CCOCC4)cc3C2)cc1 [Example 121, 4-Methoxyphenyl 6-{1-[(4-hydroxyphenyl)(methyl)carbamoyl]-5,6,7,8-tetrahydroindolizin-3-yl}-7-[(3S)-3-(morpholin-4-ylmethyl)-1,2,3,4-tetrahydroisoquinoline-2-carbonyl]-1,2,3,4-tetrahydroisoquinoline-2-carboxylate]	2.9	2.8
CN(C(=O)c1cc(-c2cc3c(cc2C(=O)N2Cc4ccccc4C[C@H]2CN2CCOCC2)CN(C(=O)Oc2ccc(Cl)cc2)CC3)n2c1CCCC2)c1ccc(O)cc1 [Example 122, 4-Chlorophenyl 6-{1-[(4-hydroxyphenyl)(methyl)carbamoyl]-5,6,7,8-tetrahydroindolizin-3-yl}-7-[(3S)-3-(morpholin-4-ylmethyl)-1,2,3,4-tetrahydroisoquinoline-2-carbonyl]-1,2,3,4-tetrahydroisoquinoline-2-carboxylate]	2.6	5.4
CN(C(=O)c1cc(-c2cc3c(cc2C(=O)N2Cc4ccccc4C[C@H]2CN2CCOCC2)CN(C(=O)Oc2ccc(C(F)(F)F)cc2)CC3)n2c1CCCC2)c1ccc(O)cc1 [Example 124, 4-(Trifluoromethyl)phenyl 6-{1-[(4-hydroxyphenyl)(methyl)carbamoyl]-5,6,7,8-tetrahydroindolizin-3-yl}-7-[(3S)-3-(morpholin-4-ylmethyl)-1,2,3,4-tetrahydroisoquinoline-2-carbonyl]-1,2,3,4-tetrahydroisoquinoline-2-carboxylate]	12	50
CN(C(=O)c1cc(-c2cc3c(cc2C(=O)N2Cc4ccccc4C[C@H]2CN2CCOCC2)CN(C(=O)Oc2ccc(OC(F)(F)F)cc2)CC3)n2c1CCCC2)c1ccc(O)cc1 [Example 125, 4-(Trifluoromethoxy)phenyl 6-{1-[(4-hydroxyphenyl)(methyl)carbamoyl]-5,6,7,8-tetrahydroindolizin-3-yl}-7-[(3S)-3-(morpholin-4-ylmethyl)-1,2,3,4-tetrahydroisoquinoline-2-carbonyl]-1,2,3,4-tetrahydroisoquinoline-2-carboxylate]	8.7	49
CCc1ccc(OC(=O)N2CCc3cc(-c4cc(C(=O)N(C)c5ccc(O)cc5)c5n4CCCC5)c(C(=O)N4Cc5ccccc5C[C@H]4CN4CCOCC4)cc3C2)cc1 [Example 126, 4-Ethylphenyl 6-{1-[(4-hydroxyphenyl)(methyl)carbamoyl]-5,6,7,8-tetrahydroindolizin-3-yl}-7-[(3S)-3-(morpholin-4-ylmethyl)-1,2,3,4-tetrahydroisoquinoline-2-carbonyl]-1,2,3,4-tetrahydroisoquinoline-2-carboxylate]	5.9	5.2
CN(C(=O)c1cc(-c2cc3c(cc2C(=O)N2Cc4ccccc4C[C@H]2CN2CCOCC2)CN(C(=O)Oc2ccc(C#N)cc2)CC3)n2c1CCCC2)c1ccc(O)cc1 [Example 127, 4-Cyanophenyl 6-{1-[(4-hydroxyphenyl)(methyl)carbamoyl]-5,6,7,8-tetrahydroindolizin-3-yl}-7-[(3S)-3-(morpholin-4-ylmethyl)-1,2,3,4-tetrahydroisoquinoline-2-carbonyl]-1,2,3,4-tetrahydroisoquinoline-2-carboxylate]	3.3	6.4
COc1ccccc1OC(=O)N1CCc2cc(-c3cc(C(=O)N(C)c4ccc(O)cc4)c4n3CCCC4)c(C(=O)N3Cc4ccccc4C[C@H]3CN3CCOCC3)cc2C1 [Example 128, 2-Methoxyphenyl 6-{1-[(4-hydroxyphenyl)(methyl)carbamoyl]-5,6,7,8-tetrahydroindolizin-3-yl}-7-[(3S)-3-(morpholin-4-ylmethyl)-1,2,3,4-tetrahydroisoquinoline-2-carbonyl]-1,2,3,4-tetrahydroisoquinoline-2-carboxylate]	3.5	8.2

Second part, led by results:

IC50 (Bcl-2 protein) [nM]	Structure (SMILES)	IC50 [1] [nM]
3.4	Cc1c(C(=O)N(C)c2ccccc2)cc(-c2cc3c(cc2C(=O)N2Cc4ccccc4C[C@H]2C)CN(C(=O)Cc2ccccc2)CC3)n1C [Example 118, N,1,2-Trimethyl-5-{7-[(3R)-3-methyl-1,2,3,4-tetrahydroisoquinoline-2-carbonyl]-2-(2-phenylacetyl)-1,2,3,4-tetrahydroisoquinolin-6-yl}-N-phenyl-1H-pyrrole-3-carboxamide]	43
622	Cc1c(C(=O)N(C)c2ccccc2)cc(-c2cc3c(cc2C(=O)N2Cc4ccccc4C[C@H]2C)CNCC3)n1C [Example 119, N,1,2-Trimethyl-5-{7-[(3R)-3-methyl-1,2,3,4-tetrahydroisoquinoline-2-carbonyl]-1,2,3,4-tetrahydroisoquinolin-6-yl}-N-phenyl-1H-pyrrole-3-carboxamide hydrochloride]	> 150
5.3	C[C@@H]1Cc2ccccc2CN1C(=O)c1cc2c(cc1-c1cc(C(=O)N(C)c3ccc(O)cc3)c3n1CCCC3)CCN(C(=O)Cc1cccc(NCCN(C)C)c1)C2 [Example 123, 3-{2-[2-(3-{[2-(Dimethylamino)ethyl]amino}phenyl)acetyl]-7-[(3R)-3-methyl-1,2,3,4-tetrahydroisoquinoline-2-carbonyl]-1,2,3,4-tetrahydroisoquinolin-6-yl}-N-(4-hydroxyphenyl)-N-methyl-5,6,7,8-tetrahydroindolizine-1-carboxamide]	8.3
3.3	C[C@@H]1Cc2ccccc2CN1C(=O)c1cc2c(cc1-c1cc(C(=O)N(C)c3ccc(O)cc3)c3n1CCCC3)CCN(C(=O)Cc1ccc(CN3CCOCC3)cc1)C2 [Example 129, N-(4-Hydroxyphenyl)-N-methyl-3-{7-[(3R)-3-methyl-1,2,3,4-tetrahydroisoquinoline-2-carbonyl]-2-{2-[4-(morpholin-4-ylmethyl)phenyl]acetyl}-1,2,3,4-tetrahydroisoquinolin-6-yl}-5,6,7,8-tetrahydroindolizine-1-carboxamide]	39
3.1	Cc1c(C(=O)N(C)c2ccc(O)cc2)cc(-c2cc3c(cc2C(=O)N2Cc4ccccc4C[C@H]2CN2CCOCC2)CN(C(=O)CCc2ccccc2)CC3)n1C [Example 130, N-(4-Hydroxyphenyl)-N,1,2-trimethyl-5-{7-[(3S)-3-(morpholin-4-ylmethyl)-1,2,3,4-tetrahydroisoquinoline-2-carbonyl]-2-(3-phenylpropanoyl)-1,2,3,4-tetrahydroisoquinolin-6-yl}-1H-pyrrole-3-carboxamide]	36
4	Cc1c(C(=O)N(C)c2ccc(O)cc2)cc(-c2cc3c(cc2C(=O)N2Cc4ccccc4C[C@H]2CN2CCOCC2)CN(C(=O)/C=C/c2ccccc2)CC3)n1C [Example 131, N-(4-Hydroxyphenyl)-N,1,2-trimethyl-5-{7-[(3S)-3-(morpholin-4-ylmethyl)-1,2,3,4-tetrahydroisoquinoline-2-carbonyl]-2-[(2E)-3-phenylprop-2-enoyl]-1,2,3,4-tetrahydroisoquinolin-6-yl}-1H-pyrrole-3-carboxamide]	11
4.6	Cc1c(C(=O)N(C)c2ccc(O)cc2)cc(-c2cc3c(cc2C(=O)N2Cc4ccccc4C[C@H]2CN2CCOCC2)CN(C(=O)CCC2CCCCC2)CC3)n1C [Example 132, 5-[2-(3-Cyclohexylpropanoyl)-7-[(3S)-3-(morpholin-4-ylmethyl)-1,2,3,4-tetrahydroisoquinoline-2-carbonyl]-1,2,3,4-tetrahydroisoquinolin-6-yl]-N-(4-hydroxyphenyl)-N,1,2-trimethyl-1H-pyrrole-3-carboxamide]	32
7	C[C@@H]1Cc2ccccc2CN1C(=O)c1cc2c(cc1-c1cc(C(=O)N(c3ccccc3)c3ccc(O)cc3)c3n1CCCC3)CN(C(=O)Oc1ccccc1)C2 [Example 133, Phenyl 5-{1-[(4-hydroxyphenyl)(phenyl)carbamoyl]-5,6,7,8-tetrahydroindolizin-3-yl}-6-[(3R)-3-methyl-1,2,3,4-tetrahydroisoquinoline-2-carbonyl]-2,3-dihydro-1H-isoindole-2-carboxylate]	8.2
4.3	C[C@@H]1Cc2ccccc2CN1C(=O)c1cc2c(cc1-c1cc(C(=O)N(c3ccccc3)c3ccc(O)cc3)c3n1CCCC3)CCN(C(=O)Cc1ccccc1)C2 [Example 134, N-(4-hydroxyphenyl)-3-{7-[(3R)-3-methyl-1,2,3,4-tetrahydroisoquinoline-2-carbonyl]-2-(2-phenylacetyl)-1,2,3,4-tetrahydroisoquinolin-6-yl}-N-phenyl-5,6,7,8-tetrahydroindolizine-1-carboxamide]	2
8.4	COc1cccc(CCC(=O)N2CCc3cc(-c4cc(C(=O)N(C)c5ccc(O)cc5)c(C)n4C)c(C(=O)N4Cc5ccccc5C[C@H]4CN4CCOCC4)cc3C2)c1 [Example 135, N-(4-Hydroxyphenyl)-5-{2-[3-(3-methoxyphenyl)propanoyl]-7-[(3S)-3-(morpholin-4-ylmethyl)-1,2,3,4-tetrahydroisoquinoline-2-carbonyl]-1,2,3,4-tetrahydroisoquinolin-6-yl}-N,1,2-trimethyl-1H-pyrrole-3-carboxamide]	99
